Assay results taken from PubChem BioAssay AID256 (DTP/NCI, 2004).
Where “and” joins values, the source holds several entries; their conditions need not be identical. Equal entries are not always repeated. Toxic doses and inconclusive results are not listed. How the source made its calls: active means survival T/C of 150% or more; inactive means T/C below 125% in these data.

System: CD2F1 mice, L1210 leukemia ip, survival T/C
Assay: NCI In Vivo Anticancer Drug Screen. Data for tumor model L1210 Leukemia (intraperitoneal) in CD2F1 (CDF1) mice
Conditions: higher = longer survival
Outline: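 In this screen, transplantable tumors were grown in mice given either the compound or its vehicle. Results were expressed as the treated measurement relative to the control measurement.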

[1] = endpoint: mean survival time, dose: 100.0 mg/kg/injection, schedule: Q01DX001 (ip), vehicle: saline with Tween-80
[2] = endpoint: mean survival time, dose: 200.0 mg/kg/injection, schedule: Q01DX001 (ip), vehicle: saline with Tween-80
[3] = endpoint: mean survival time, dose: 400.0 mg/kg/injection, schedule: Q01DX001 (ip), vehicle: saline with Tween-80
[4] = endpoint: mean survival time, dose: 100.0 mg/kg/injection, schedule: Q04DX003 (ip), vehicle: saline with Tween-80
[5] = endpoint: mean survival time, dose: 200.0 mg/kg/injection, schedule: Q04DX003 (ip), vehicle: saline with Tween-80
[6] = endpoint: mean survival time, dose: 400.0 mg/kg/injection, schedule: Q04DX003 (ip), vehicle: saline with Tween-80
[7] = endpoint: mean survival time, dose: 25.0 mg/kg/injection, schedule: Q01DX009 (ip), vehicle: saline with Tween-80
[8] = endpoint: mean survival time, dose: 50.0 mg/kg/injection, schedule: Q01DX009 (ip), vehicle: saline with Tween-80
[9] = endpoint: mean survival time, dose: 100.0 mg/kg/injection, schedule: Q01DX009 (ip), vehicle: saline with Tween-80
[10] = endpoint: mean survival time, dose: 200.0 mg/kg/injection, schedule: Q01DX009 (ip), vehicle: saline with Tween-80
[11] = endpoint: mean survival time, dose: 100.0 mg/kg/injection, schedule: Q01DX001 (ip), vehicle: saline
[12] = endpoint: mean survival time, dose: 200.0 mg/kg/injection, schedule: Q01DX001 (ip), vehicle: saline
[13] = endpoint: mean survival time, dose: 400.0 mg/kg/injection, schedule: Q01DX001 (ip), vehicle: saline

Measured: T/C

CN(Cc1c[nH]c2nc(N)nc(N)c2c1=O)c1ccc(C(=O)NC(CCC(=O)O)C(=O)O)cc1 (stereo not drawn)
inactive: endpoint: mean survival time, dose: 0.5 mg/kg/injection, schedule: Q01DX005 (ip), vehicle: sodium bicarbonate 97 % of control and 98 % of control | endpoint: mean survival time, dose: 1.0 mg/kg/injection, schedule: Q01DX005 (ip), vehicle: distilled water + Tween-80 105 % of control | endpoint: mean survival time, dose: 1.0 mg/kg/injection, schedule: Q01DX005 (ip), vehicle: sodium bicarbonate 91 % of control and 108 % of control | endpoint: mean survival time, dose: 2.0 mg/kg/injection, schedule: Q01DX005 (ip), vehicle: distilled water + Tween-80 102 % of control | endpoint: mean survival time, dose: 2.0 mg/kg/injection, schedule: Q01DX005 (ip), vehicle: sodium bicarbonate 97 % of control and 103 % of control | endpoint: mean survival time, dose: 4.0 mg/kg/injection, schedule: Q01DX005 (ip), vehicle: distilled water + Tween-80 100 % of control | endpoint: mean survival time, dose: 4.0 mg/kg/injection, schedule: Q01DX005 (ip), vehicle: sodium bicarbonate 121 % of control and 104 % of control | endpoint: mean survival time, dose: 8.0 mg/kg/injection, schedule: Q01DX005 (ip), vehicle: distilled water + Tween-80 97 % of control | endpoint: mean survival time, dose: 8.0 mg/kg/injection, schedule: Q01DX005 (ip), vehicle: sodium bicarbonate 101 % of control | endpoint: mean survival time, dose: 16.0 mg/kg/injection, schedule: Q01DX005 (ip), vehicle: distilled water + Tween-80 102 % of control | endpoint: mean survival time, dose: 16.0 mg/kg/injection, schedule: Q01DX005 (ip), vehicle: sodium bicarbonate 98 % of control and 102 % of control

O=C(O)c1cc(Cl)nc(Cl)c1
inactive: [1] 94 % of control | [2] 97 % of control | [3] 92 % of control

COc1ccc(NC(=O)CC(C)(C)C(=O)O)cc1
inactive: [4] 101 % of control | [5] 100 % of control | [6] 103 % of control

Nc1ncnc(N)c1NC(=O)c1ccc(OCCOc2ccccc2)c(Cl)c1
inactive: [5] 88 % of control

CCOC(=O)c1cc2ccccc2oc1=O
inactive: [7] 100 % of control | [8] 97 % of control | [9] 109 % of control

CCCCCOC(=O)Nc1cccc(O)c1
inactive: [4] 95 % of control | [5] 94 % of control

CC(=O)Nc1ccc(OCCOC(=O)Nc2ccc(Cl)cc2C)cc1
inactive: endpoint: mean survival time, dose: 12.5 mg/kg/injection, schedule: Q01DX009 (ip), vehicle: saline with Tween-80 98 % of control | [7] 95 % of control | [8] 95 % of control and 96 % of control | [10] 92 % of control

O=C(O)c1cc([N+](=O)[O-])cc([N+](=O)[O-])c1
inactive: [4] 97 % of control | [5] 97 % of control | [6] 101 % of control

N#CCC(=O)N/N=C/c1ccccc1
inactive: [9] 91 % of control | [10] 86 % of control

Fc1c(F)c(F)c(-c2c(F)c(F)c(-c3c(F)c(F)c(-c4c(F)c(F)c(F)c(F)c4F)c(F)c3F)c(F)c2F)c(F)c1F
inactive: [9] 96 % of control | [10] 88 % of control

CC(=O)c1cc(F)ccc1O
inactive: [9] 92 % of control | [10] 111 % of control | endpoint: mean survival time, dose: 400.0 mg/kg/injection, schedule: Q01DX009 (ip), vehicle: saline with Tween-80 88 % of control

S
inactive: endpoint: mean survival time, dose: 100.0 mg/kg/injection, schedule: Q04DX003 (ip), vehicle: Klucel (hydroxypropylcellulose) (HPC) 95 % of control | endpoint: mean survival time, dose: 200.0 mg/kg/injection, schedule: Q04DX003 (ip), vehicle: Klucel (hydroxypropylcellulose) (HPC) 101 % of control | endpoint: mean survival time, dose: 400.0 mg/kg/injection, schedule: Q04DX003 (ip), vehicle: Klucel (hydroxypropylcellulose) (HPC) 93 % of control

CCC(NC(N)=O)C(CC)NC(N)=O (stereo not drawn)
inactive: endpoint: median survival time, dose: 12.5 mg/kg/injection, schedule: Q01DX009 (ip), vehicle: saline with Tween-80 97 % of control | endpoint: median survival time, dose: 25.0 mg/kg/injection, schedule: Q01DX009 (ip), vehicle: saline with Tween-80 96 % of control | endpoint: median survival time, dose: 50.0 mg/kg/injection, schedule: Q01DX009 (ip), vehicle: saline with Tween-80 90 % of control

CC1=CC(=O)C(C(C)C)=CC1=O
inactive: [7] 101 % of control | [8] 108 % of control | [4] 88 % of control

O=S(=O)(O)C(I)S(=O)(=O)O
inactive: [11] 97 % of control | [12] 102 % of control | [13] 114 % of control

COC(=O)/N=C(/NC(=O)OC)SC
inactive: [1] 101 % of control | [2] 103 % of control | [3] 98 % of control

CC(=O)Nc1cccc(/C=C/C=C/c2cccc([N+](=O)[O-])c2)c1
inactive: endpoint: mean survival time, dose: 100.0 mg/kg/injection, schedule: Q01DX001 (ip), vehicle: Klucel (hydroxypropylcellulose) (HPC) 103 % of control | endpoint: mean survival time, dose: 200.0 mg/kg/injection, schedule: Q01DX001 (ip), vehicle: Klucel (hydroxypropylcellulose) (HPC) 97 % of control | endpoint: mean survival time, dose: 400.0 mg/kg/injection, schedule: Q01DX001 (ip), vehicle: Klucel (hydroxypropylcellulose) (HPC) 90 % of control

O=C(Nc1ccc(Cl)c(Cl)c1)Nc1ccc(Oc2ccc(Cl)cc2Cl)cc1S(=O)(=O)O
inactive: endpoint: mean survival time, dose: 100.0 mg/kg/injection, schedule: Q01DX001 (ip), vehicle: acetone 102 % of control | endpoint: mean survival time, dose: 200.0 mg/kg/injection, schedule: Q01DX001 (ip), vehicle: acetone 91 % of control | endpoint: mean survival time, dose: 400.0 mg/kg/injection, schedule: Q01DX001 (ip), vehicle: acetone 94 % of control

COc1ccc(Nc2ncnc3c2ncn3C2OC(CO)C(O)C2O)cc1 (stereo not drawn)
inactive: endpoint: mean survival time, dose: 6.25 mg/kg/injection, schedule: Q01DX005 (ip), vehicle: distilled water + Tween-80 101 % of control | endpoint: mean survival time, dose: 12.5 mg/kg/injection, schedule: Q01DX005 (ip), vehicle: distilled water + Tween-80 102 % of control and 96 % of control | endpoint: mean survival time, dose: 25.0 mg/kg/injection, schedule: Q01DX005 (ip), vehicle: distilled water + Tween-80 104 % of control and 96 % of control | endpoint: mean survival time, dose: 50.0 mg/kg/injection, schedule: Q01DX005 (ip), vehicle: distilled water + Tween-80 91 % of control | endpoint: mean survival time, dose: 100.0 mg/kg/injection, schedule: Q01DX005 (ip), vehicle: distilled water + Tween-80 102 % of control | endpoint: mean survival time, dose: 200.0 mg/kg/injection, schedule: Q01DX005 (ip), vehicle: distilled water + Tween-80 100 % of control

O=C(O)C(Cl)(Br)C(Cl)c1ccccc1 (stereo not drawn)
inactive: [4] 100 % of control | [5] 102 % of control | [6] 103 % of control

N#C[S-].N#C[S-].[NH-]CC[NH-].[Pt+4]
inactive: endpoint: mean survival time, dose: 10.0 mg/kg/injection, schedule: Q04DX003 (ip), vehicle: saline with Tween-80 97 % of control | endpoint: mean survival time, dose: 20.0 mg/kg/injection, schedule: Q04DX003 (ip), vehicle: saline with Tween-80 98 % of control | endpoint: mean survival time, dose: 40.0 mg/kg/injection, schedule: Q04DX003 (ip), vehicle: saline with Tween-80 106 % of control

CC(=O)Nc1nc(Cl)nc2c1ncn2Cc1ccccc1
inactive: endpoint: mean survival time, dose: 75.0 mg/kg/injection, schedule: Q01DX001 (ip), vehicle: other 95 % of control | endpoint: mean survival time, dose: 150.0 mg/kg/injection, schedule: Q01DX001 (ip), vehicle: other 96 % of control

COc1ccc(-c2c(C(=O)O)cc(O)c3cc(OC)c(OC)cc23)cc1OC
inactive: [11] 97 % of control | [12] 97 % of control | [13] 92 % of control

CC(C)(C)OC(=O)NC(CSC(c1ccccc1)(c1ccccc1)c1ccccc1)C(=O)NCC(=O)O (stereo not drawn)
inactive: endpoint: mean survival time, dose: 75.0 mg/kg/injection, schedule: Q01DX001 (ip), vehicle: saline 96 % of control

CC(=O)OC1COC(n2c(O)c(N=NC(N)=S)c3cc([N+](=O)[O-])ccc32)C(OC(C)=O)C1OC(C)=O (stereo not drawn)
inactive: endpoint: mean survival time, dose: 12.5 mg/kg/injection, schedule: Q01DX005 (ip), vehicle: other 96 % of control | endpoint: mean survival time, dose: 25.0 mg/kg/injection, schedule: Q01DX005 (ip), vehicle: other 96 % of control | endpoint: mean survival time, dose: 50.0 mg/kg/injection, schedule: Q01DX005 (ip), vehicle: other 92 % of control | endpoint: mean survival time, dose: 100.0 mg/kg/injection, schedule: Q01DX005 (ip), vehicle: other 88 % of control

CC(C#N)CCCC#N (stereo not drawn)
inactive: [7] 100 % of control | [8] 102 % of control | [4] 101 % of control
